The source made the active and inactive calls.
Tests used:
BJ [1] = assay: BJ-TERT fibroblast viability loss – cell-based, RAS-independent, luminescence, dose response (AID 1933); assay type: functional; conditions: Homo sapiens
BJ [2] = assay: BJ-TERT-LT-ST fibroblast viability loss – cell-based, RAS-independent, luminescence, dose response (AID 1935); assay type: functional; conditions: Homo sapiens;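 note: BJ fibroblasts immortalized with TERT plus LT and ST oncogenes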
[3] = DRD fibroblast viability loss – cell-based, non-viral oncogenic, luminescence, dose response (AID 1934); assay type: functional; conditions: Homo sapiens
Exodeoxyribonuclease V = Exodeoxyribonuclease V (Escherichia coli (strain K12), UniProt P04993+P07648+P08394); assay: RecBCD inhibition via phage-restricted bacterial growth – absorbance, V66 E. coli, mutant T4 phage, counter-screen for AddAB inhibitor project, dose response (AID 492957); assay type: functional, cell-based, Escherichia coli str. K-12 substr. MG1655
[4] = Counterscreen for AddAB inhibitors: absorbance-based bacterial cell-based high throughput dose response assay for inhibitors of bacterial viability. [Related pubchem assays (depositor defined):AID435030, AID449728, AID449731, AID488942, AID488955, AID488956]; assay type: functional
Vero = assay: cells; assay type: functional; conditions: Chlorocebus sabaeus
Estrogen receptor = target: T1, Estrogen receptor (Homo sapiens, UniProt P03372);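 note: potency for inhibiting coactivator peptide recruitment to the receptor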
T1 sequence (P03372 whole entry): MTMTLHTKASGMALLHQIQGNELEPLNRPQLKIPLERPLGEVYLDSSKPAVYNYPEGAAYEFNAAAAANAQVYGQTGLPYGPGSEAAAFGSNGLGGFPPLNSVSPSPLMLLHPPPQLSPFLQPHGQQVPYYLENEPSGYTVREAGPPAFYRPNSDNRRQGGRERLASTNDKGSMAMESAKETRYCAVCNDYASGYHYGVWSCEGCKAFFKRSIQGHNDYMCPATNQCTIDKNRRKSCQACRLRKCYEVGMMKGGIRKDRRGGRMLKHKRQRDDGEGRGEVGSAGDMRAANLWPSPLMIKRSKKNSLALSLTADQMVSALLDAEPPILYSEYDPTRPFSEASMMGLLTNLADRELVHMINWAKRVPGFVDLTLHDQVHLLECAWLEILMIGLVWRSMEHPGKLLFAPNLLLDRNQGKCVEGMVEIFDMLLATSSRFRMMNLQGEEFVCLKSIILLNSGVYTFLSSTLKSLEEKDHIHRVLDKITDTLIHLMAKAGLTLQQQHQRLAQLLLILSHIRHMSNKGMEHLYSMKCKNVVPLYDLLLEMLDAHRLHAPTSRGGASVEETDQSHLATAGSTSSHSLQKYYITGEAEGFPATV

Trypsin = Trypsin (Sus scrofa, UniProt P00761); assay: trypsin protease activity blockade – biochemical, quenched peptide fluorescence, cherry-pick, selectivity assay for Rce1 protease inhibitor project, dose response (AID 488789)
CAAX prenyl protease 1 = CAAX prenyl protease 1 (Saccharomyces cerevisiae S288c, UniProt P47154); assay: yeast CAAX protease Ste24 inhibition – biochemical, S. cerevisiae, plate reader, cherry-pick, dose response (AID 488815)
[5] = target: T2, Nucleotide-binding oligomerization domain-containing protein 1 (Homo sapiens, UniProt Q9Y239); assay: SAR analysis of compounds that inhibit NOD1 - Set 3. [Related pubchem assays (depositor defined):AID1566, AID1575, AID1578, AID1849, AID1852, AID2333, AID2335, AID2466]; assay type: functional
T2 sequence (Q9Y239 whole entry): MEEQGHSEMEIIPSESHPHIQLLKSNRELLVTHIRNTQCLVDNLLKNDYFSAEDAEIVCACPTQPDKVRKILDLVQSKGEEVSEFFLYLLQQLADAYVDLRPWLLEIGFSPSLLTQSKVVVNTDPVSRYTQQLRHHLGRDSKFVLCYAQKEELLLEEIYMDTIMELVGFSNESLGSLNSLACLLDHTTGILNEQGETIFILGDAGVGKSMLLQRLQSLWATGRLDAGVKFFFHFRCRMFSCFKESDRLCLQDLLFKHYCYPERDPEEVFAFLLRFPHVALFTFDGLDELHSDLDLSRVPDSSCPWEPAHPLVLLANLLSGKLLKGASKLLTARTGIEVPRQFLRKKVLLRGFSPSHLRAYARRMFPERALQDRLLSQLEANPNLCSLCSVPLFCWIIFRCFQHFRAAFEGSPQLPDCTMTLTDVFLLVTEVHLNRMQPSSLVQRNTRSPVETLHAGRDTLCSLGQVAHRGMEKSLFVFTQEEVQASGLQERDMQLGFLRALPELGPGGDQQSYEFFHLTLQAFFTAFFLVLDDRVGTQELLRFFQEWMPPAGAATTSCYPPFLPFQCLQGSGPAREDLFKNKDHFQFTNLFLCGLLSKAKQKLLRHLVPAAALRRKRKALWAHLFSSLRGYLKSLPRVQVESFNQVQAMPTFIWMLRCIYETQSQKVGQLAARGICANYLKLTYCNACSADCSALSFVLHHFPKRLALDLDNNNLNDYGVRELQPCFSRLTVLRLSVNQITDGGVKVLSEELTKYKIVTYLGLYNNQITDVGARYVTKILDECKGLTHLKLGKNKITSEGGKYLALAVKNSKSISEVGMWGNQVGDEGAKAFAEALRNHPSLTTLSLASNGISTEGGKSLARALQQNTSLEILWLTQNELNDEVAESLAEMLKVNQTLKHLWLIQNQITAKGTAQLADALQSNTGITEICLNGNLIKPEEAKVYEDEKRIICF

Tumor necrosis factor = Tumor necrosis factor (Homo sapiens, UniProt P01375); assay: analog potency on TNFa NF-kB signaling – cell-based, set 3, SAR follow-up (AID 2801); assay type: functional
HEK293 = assay: SAR analysis of compounds that are cytotoxic to HEK293 - Set 3. [Related pubchem assays (depositor defined):AID1575, AID1578, AID1848, AID1849, AID2001, AID2333, AID2334, AID2335, AID2337, AID2469]; assay type: functional, cell-based; conditions: Homo sapiens
[6] = target: Nucleotide-binding oligomerization domain-containing protein 2 (Homo sapiens, UniProt Q9HC29); assay: inhibition of MDP-driven NOD2 NF-kB reporter – cell-based, set 3, SAR follow-up (AID 2799); assay type: functional
Sequence of Nucleotide-binding oligomerization domain-containing protein 2 (Q9HC29 whole entry, the tested form may be a part): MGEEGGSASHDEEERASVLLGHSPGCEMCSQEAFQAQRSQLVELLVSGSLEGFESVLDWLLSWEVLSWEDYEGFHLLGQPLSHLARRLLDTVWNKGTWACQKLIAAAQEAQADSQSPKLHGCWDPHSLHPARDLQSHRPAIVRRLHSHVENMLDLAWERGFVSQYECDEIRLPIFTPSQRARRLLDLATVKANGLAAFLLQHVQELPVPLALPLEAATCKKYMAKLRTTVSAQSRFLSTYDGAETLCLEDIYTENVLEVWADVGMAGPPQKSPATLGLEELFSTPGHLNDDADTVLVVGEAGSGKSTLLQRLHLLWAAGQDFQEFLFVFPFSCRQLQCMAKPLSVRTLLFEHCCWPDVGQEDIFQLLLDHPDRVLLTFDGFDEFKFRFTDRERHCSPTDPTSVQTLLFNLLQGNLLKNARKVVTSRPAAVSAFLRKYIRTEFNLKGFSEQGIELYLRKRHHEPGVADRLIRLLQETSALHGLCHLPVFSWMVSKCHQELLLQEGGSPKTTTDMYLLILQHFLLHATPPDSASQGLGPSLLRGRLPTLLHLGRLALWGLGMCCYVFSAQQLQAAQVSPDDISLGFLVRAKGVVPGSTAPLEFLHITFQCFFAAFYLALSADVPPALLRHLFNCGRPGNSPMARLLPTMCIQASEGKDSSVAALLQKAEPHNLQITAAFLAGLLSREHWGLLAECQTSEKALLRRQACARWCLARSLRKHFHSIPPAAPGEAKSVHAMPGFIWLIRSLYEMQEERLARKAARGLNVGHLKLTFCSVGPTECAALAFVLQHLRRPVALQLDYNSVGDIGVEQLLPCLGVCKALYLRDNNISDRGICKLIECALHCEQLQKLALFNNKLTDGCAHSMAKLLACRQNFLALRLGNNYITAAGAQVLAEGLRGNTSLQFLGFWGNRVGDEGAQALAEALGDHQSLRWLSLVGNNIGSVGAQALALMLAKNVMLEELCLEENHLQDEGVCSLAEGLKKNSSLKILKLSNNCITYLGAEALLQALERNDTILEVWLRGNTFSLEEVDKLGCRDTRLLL

Sequence of CAAX prenyl protease 1 (P47154 whole entry, the tested form may be a part): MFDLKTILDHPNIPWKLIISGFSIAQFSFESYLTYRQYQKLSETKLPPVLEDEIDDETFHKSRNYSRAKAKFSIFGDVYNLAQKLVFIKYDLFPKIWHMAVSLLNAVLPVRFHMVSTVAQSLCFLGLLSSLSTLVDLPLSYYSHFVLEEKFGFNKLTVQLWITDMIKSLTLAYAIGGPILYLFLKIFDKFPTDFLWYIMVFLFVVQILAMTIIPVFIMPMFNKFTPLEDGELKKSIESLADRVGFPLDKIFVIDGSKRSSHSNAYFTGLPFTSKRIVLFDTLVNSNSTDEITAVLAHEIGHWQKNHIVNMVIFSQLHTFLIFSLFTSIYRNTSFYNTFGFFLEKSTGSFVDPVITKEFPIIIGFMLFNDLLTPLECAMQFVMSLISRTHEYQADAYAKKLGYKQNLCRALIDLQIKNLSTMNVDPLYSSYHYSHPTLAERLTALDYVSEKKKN
Sequence of Tumor necrosis factor (P01375 whole entry): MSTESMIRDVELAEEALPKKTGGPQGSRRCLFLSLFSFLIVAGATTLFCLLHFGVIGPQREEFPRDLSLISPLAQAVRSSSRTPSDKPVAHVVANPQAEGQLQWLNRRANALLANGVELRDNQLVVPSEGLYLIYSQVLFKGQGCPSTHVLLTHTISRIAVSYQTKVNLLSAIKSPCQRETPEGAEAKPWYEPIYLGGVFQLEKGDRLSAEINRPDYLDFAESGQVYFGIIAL
Sequence of Exodeoxyribonuclease V (P04993 whole entry): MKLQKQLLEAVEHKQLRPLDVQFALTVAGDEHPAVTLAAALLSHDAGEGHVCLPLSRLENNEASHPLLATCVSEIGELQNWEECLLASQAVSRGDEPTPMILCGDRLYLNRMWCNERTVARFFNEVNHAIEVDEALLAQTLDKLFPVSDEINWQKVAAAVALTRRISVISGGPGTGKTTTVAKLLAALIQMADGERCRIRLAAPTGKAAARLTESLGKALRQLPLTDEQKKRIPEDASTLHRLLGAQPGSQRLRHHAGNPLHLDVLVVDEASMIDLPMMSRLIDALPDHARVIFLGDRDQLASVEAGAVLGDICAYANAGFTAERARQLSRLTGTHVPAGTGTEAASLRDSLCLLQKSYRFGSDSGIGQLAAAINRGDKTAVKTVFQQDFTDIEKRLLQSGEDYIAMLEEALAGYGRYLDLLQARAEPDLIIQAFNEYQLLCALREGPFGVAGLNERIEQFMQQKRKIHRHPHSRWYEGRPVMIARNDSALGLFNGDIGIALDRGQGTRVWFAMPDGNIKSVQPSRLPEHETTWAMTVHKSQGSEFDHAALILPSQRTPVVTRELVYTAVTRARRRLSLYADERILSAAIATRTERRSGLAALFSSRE
Sequence of Exodeoxyribonuclease V (P07648 whole entry): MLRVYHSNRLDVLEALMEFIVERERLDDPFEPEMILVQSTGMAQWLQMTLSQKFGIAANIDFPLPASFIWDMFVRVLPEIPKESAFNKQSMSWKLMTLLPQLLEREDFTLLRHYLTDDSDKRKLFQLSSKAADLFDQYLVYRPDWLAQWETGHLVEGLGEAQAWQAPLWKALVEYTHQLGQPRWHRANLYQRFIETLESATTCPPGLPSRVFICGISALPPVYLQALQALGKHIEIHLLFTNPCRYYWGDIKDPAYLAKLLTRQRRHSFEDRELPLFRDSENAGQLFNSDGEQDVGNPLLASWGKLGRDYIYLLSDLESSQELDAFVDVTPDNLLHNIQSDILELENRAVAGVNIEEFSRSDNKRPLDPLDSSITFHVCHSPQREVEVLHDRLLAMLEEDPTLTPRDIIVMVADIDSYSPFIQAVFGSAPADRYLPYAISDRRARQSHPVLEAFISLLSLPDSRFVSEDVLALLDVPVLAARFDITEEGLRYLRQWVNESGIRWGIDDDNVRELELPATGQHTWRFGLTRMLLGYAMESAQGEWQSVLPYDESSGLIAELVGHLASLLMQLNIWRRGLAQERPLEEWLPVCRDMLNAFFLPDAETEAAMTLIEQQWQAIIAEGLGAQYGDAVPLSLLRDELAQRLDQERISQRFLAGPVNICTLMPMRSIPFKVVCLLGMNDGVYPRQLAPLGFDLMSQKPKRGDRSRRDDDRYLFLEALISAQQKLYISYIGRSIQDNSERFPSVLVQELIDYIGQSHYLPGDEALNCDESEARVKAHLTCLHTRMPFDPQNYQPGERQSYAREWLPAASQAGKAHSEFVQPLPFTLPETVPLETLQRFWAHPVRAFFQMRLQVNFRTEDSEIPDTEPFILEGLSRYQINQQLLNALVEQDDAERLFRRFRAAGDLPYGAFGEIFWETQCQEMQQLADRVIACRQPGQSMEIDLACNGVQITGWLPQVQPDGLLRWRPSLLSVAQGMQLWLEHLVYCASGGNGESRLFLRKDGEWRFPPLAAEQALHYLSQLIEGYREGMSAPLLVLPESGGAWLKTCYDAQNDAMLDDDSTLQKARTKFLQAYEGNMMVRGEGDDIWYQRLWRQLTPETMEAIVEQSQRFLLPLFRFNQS
Sequence of Exodeoxyribonuclease V (P08394 whole entry): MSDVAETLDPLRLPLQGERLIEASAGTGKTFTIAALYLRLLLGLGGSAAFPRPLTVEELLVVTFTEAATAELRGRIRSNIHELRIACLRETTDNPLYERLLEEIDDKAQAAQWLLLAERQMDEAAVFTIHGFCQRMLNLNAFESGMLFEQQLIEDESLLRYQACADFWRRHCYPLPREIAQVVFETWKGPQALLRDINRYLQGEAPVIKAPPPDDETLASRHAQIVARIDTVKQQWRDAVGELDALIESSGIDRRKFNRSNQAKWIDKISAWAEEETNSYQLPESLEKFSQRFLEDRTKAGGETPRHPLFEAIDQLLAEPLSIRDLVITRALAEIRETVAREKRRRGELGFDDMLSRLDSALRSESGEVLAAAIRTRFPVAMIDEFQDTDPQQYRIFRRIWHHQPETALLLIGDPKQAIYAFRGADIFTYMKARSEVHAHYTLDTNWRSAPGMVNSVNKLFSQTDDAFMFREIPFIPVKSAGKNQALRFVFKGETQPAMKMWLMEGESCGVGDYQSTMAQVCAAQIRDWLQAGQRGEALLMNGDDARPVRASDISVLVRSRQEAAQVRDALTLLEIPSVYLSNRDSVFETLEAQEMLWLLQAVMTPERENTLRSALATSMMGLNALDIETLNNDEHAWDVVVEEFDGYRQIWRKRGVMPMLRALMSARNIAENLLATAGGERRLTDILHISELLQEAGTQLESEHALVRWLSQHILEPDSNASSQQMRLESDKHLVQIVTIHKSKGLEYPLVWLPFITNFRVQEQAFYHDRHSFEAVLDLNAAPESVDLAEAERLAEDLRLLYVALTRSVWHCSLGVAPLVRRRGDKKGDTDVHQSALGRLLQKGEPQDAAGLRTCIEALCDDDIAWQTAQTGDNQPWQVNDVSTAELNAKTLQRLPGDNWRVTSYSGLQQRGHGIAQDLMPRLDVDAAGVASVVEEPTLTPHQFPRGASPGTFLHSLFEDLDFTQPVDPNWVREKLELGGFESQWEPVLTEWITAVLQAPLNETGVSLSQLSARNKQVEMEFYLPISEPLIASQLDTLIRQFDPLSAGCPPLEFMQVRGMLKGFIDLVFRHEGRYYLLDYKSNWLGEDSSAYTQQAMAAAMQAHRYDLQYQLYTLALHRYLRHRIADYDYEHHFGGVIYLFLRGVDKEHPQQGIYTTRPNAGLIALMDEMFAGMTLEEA
Sequence of Trypsin (P00761 whole entry): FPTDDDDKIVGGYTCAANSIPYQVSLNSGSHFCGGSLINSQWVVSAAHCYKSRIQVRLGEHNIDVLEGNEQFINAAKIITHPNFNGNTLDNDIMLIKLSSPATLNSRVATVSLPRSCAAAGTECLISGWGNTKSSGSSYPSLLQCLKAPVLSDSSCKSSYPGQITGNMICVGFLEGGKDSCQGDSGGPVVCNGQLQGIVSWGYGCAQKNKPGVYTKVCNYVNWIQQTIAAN

SMILES: O=Nc1ccc(O)c2ncccc12
- EC50 (BJ [1]): 12.9 µM (active)
- EC50 (BJ [2]): 8.73 µM (active)
- EC50 [3]: 8.56 µM (active)
- IC50 (Exodeoxyribonuclease V): > 119 µM (inactive)
- IC50 [4]: 35.6 µM (inactive)
- CC50 (Vero): 9.69 µM (active)

SMILES: O=C(CSc1n[nH]c(-c2ccc(S(=O)(=O)N3CCCCC3)cc2)n1)Nc1nccs1
- IC50 (Estrogen receptor): 47.2 µM (not active)
- AC50 (Trypsin): 21.3 µM (active)
- AC50 (CAAX prenyl protease 1): 8.82 µM (active)

SMILES: COc1ccc(-c2cc(N)n(S(=O)(=O)c3cccc([N+](=O)[O-])c3)n2)cc1OC
- IC50 [5]: > 20 µM (inactive)
- IC50 (Tumor necrosis factor): > 20 µM (inactive)
- IC50 (HEK293): > 20 µM (inactive)
- IC50 [6]: > 20 µM (inactive)

Source: ChEMBL document CHEMBL1201862, “PubChem BioAssay data set” (2004)
